# Measurements from patent publication US11566030B2, “Substituted 2,6-dihydropyrrolo[3,4-c]pyrazoles as pyruvate kinase activators” (priority 2021, dated 2023).
# Read-outs that look alike come from different tables or passages of the source.
# Target: T1, Human pyruvate kinase R (PKR) (Homo sapiens, UniProt P30613)
# T1 construct: Human pyruvate kinase R (PKR), residues 14-574; 6xHis-8xArg-SUMO (N, cleaved yes); host or cells: E. coli
# Assay: Biochemical assay for activation of pyruvate kinase R (Kinase-Glo luminescence, ATP generation)
# Details: for Emax: read-out: PKR % activation, maximal activation level achieved with each compound relative to the activation level achieved by AG-348 @ 10 μM; for PKR % activation: maximal activation level achieved with each compound relative to the activation level achieved by AG-348 @ 10 μM
# Procedure: Human pyruvate kinase R (PKR), residues 14-574, and human pyruvate kinase M2, residues 1-531, were cloned into expression plasmids and obtained from ATUM Bio (Newark, Calif.). Proteins were translated as fusions with 6×-His,8×-Arg, and SUMO at the N-terminus. A third construct of human PKR was truncated, residues 50-574, and similarly cloned for use in crystallography experiments. All proteins were cloned, expressed in E. coli, and purified using similar protocols. Cells were grown at 30° C. in Luria-Bertani broth supplemented with 0.4% glucose to OD600=0.8 and induced with 0.4 mM IPTG at 16° C. for 18 hours. Cells were harvested by centrifugation, resuspended in 50 mM potassium phosphate pH 8.0, 500 mM NaCl, 25 mM imidazole pH 8.0, and 3 mM β-mercaptoethanol. Cells were lysed using a LM20 microfluidizer from Microfluidics (Westwood, Mass.). The crude lysate was immediately supplemented with 0.2 mM phenylmethylsulfonyl fluoride (PMSF) and centrifuged at 20,000 g for 20 minutes. The soluble fraction was subsequently incubated with 2 mL Ni-NTA (GE Healthcare) per 1,000 ODs for 1 hour at 4° C. Following incubation with the Ni-NTA resin, lysate was removed by pelleting resin at 2,500 g for 3 minutes and washed 3 times with 9 bed volumes of 50 mM potassium phosphate pH 8.0, 500 mM NaCl, 25 mM imidazole, and 3 mM β-mercaptoethanol. Following the batch wash Ni-NTA resin was loaded onto a gravity column and His-tagged protein was eluted with 6 bed volumes of 10 mM Tris/HCl pH 8.0, 200 mM NaCl, 500 mM imidazole, and 3 mM β-mercaptoethanol. Eluted protein was dialyzed overnight against 10 mM Tris/HCl pH 8.0, 200 mM NaCl, and 1 mM DTT and the 6×-His-8×-Arg-SUMO-tag was cleaved using a 20:1 molar ratio of protein: 3C protease. The protein was purified by anion exchange chromatography on a HiTrapQ or MonoQ 10/100 GL column (GE Healthcare) via a linear NaCl gradient and twice by size exclusion chromatography using a Superdex S200 26/60 column (GE Healthcare) run in 10 mM Tris/HCl pH 8.0, 200 mM NaCl, 10 mM MgCl2, 1 mM DTT. Proteins were concentrated to −12 mg/mL for crystallization and flash frozen for storage.
# Biochemical assay for Activation of Pyruvate Kinase R
# Activation of pyruvate kinase R (PKR) and pyruvate kinase M2 (PKM2) were measured using a luminescence based measurement of ATP generation and the Kinase-Glo luminescent kinase reagent kit.
# [1] = PKR AC50 (nM), 0.1 nM PKR, 0.3 mM ADP, 0.1 mM PEP, 1% DMSO
# T1 sequence (P30613 14-574): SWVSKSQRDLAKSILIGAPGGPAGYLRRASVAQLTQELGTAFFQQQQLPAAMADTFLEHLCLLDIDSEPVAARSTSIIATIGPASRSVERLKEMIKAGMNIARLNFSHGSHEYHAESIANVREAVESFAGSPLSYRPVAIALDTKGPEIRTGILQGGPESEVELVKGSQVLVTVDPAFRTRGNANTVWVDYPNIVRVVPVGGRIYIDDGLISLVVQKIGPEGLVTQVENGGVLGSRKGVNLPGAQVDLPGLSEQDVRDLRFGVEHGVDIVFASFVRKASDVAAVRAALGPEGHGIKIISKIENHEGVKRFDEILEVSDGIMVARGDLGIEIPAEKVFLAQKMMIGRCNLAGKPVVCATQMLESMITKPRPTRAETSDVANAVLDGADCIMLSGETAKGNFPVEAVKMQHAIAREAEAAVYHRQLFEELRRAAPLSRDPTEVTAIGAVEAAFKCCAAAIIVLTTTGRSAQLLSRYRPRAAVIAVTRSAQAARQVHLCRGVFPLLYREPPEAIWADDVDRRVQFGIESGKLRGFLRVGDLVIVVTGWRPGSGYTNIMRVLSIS
AC50 [1],Emax,AC50,PKR % activation,Compound
3400 nM,,,40%,"O=C([C@H](O)c1ccccc1F)N1Cc2cn(S(=O)(=O)c3cnn(CC(F)(F)F)c3)nc2C1 (single isomer, unassigned) [Compound 41]"
2100 nM,102%,,,"O=C([C@H](CO)c1ncccc1F)N1Cc2cn(S(=O)(=O)c3cnn(CC(F)F)c3)nc2C1 (single isomer, unassigned) [Compound 42]"
29 nM,108%,,,"O=C([C@@H](CO)c1ncccc1F)N1Cc2cn(S(=O)(=O)c3cnn(CC(F)F)c3)nc2C1 (single isomer, unassigned) [Compound 43]"
> 10000 nM,,,103%,"O=C([C@H](OCCO)c1ccccc1F)N1Cc2cn(S(=O)(=O)c3ccn(CC(F)(F)F)n3)nc2C1 (single isomer, unassigned) [Compound 85]"
1.1 nM,,,0%,"O=C([C@H](OCCO)c1ccccc1F)N1Cc2cn(S(=O)(=O)c3ccn(CC(F)(F)F)n3)nc2C1 (single isomer, unassigned) [Compound 86]"
,0%,,,"COCCOc1ccccc1[C@@H](CO)C(=O)N1Cc2cn(S(=O)(=O)c3cnn(CC(F)F)c3)nc2C1 (single isomer, unassigned) [Compound 92]"
,180%,120 nM,,"COCCOc1ccccc1[C@H](CO)C(=O)N1Cc2cn(S(=O)(=O)c3cnn(CC(F)F)c3)nc2C1 (single isomer, unassigned) [Compound 93]"
,63%,26 nM,,"O=C([C@H](CO)c1ccccc1OCCO)N1Cc2cn(S(=O)(=O)c3cnn(CC(F)F)c3)nc2C1 (single isomer, unassigned) [Compound 109]"
,146%,37 nM,,"O=C([C@@H](CO)c1ccccc1OCCO)N1Cc2cn(S(=O)(=O)c3cnn(CC(F)F)c3)nc2C1 (single isomer, unassigned) [Compound 110]"
> 10000 nM,123%,,,"C[C@@](CO)(C(=O)N1Cc2cn(S(=O)(=O)c3cnn(CC(F)F)c3)nc2C1)c1ccccn1 (single isomer, unassigned) [Compound 123]"

# Second part, the compound before the results:
Compound,AC50 [1],Emax,AC50,PKR % activation
"C[C@](CO)(C(=O)N1Cc2cn(S(=O)(=O)c3cnn(CC(F)F)c3)nc2C1)c1ccccn1 (single isomer, unassigned) [Compound 10]",116 nM,112%,,
"O=C([C@H](O)c1ncccc1F)N1Cc2cn(S(=O)(=O)c3ccn(CC(F)F)n3)nc2C1 (single isomer, unassigned) [Compound 28]",3400 nM,85%,,
"O=C([C@@H](O)c1ncccc1F)N1Cc2cn(S(=O)(=O)c3ccn(CC(F)F)n3)nc2C1 (single isomer, unassigned) [Compound 29]",420 nM,86%,,
"O=C([C@H](CO)c1ncccc1F)N1Cc2cn(S(=O)(=O)c3ccn(CC(F)F)n3)nc2C1 (single isomer, unassigned) [Compound 31]",,45%,3600 nM,
"O=C([C@@H](CO)c1ncccc1F)N1Cc2cn(S(=O)(=O)c3ccn(CC(F)F)n3)nc2C1 (single isomer, unassigned) [Compound 32]",,114%,40 nM,
"O=C([C@H](O)c1ncccc1F)N1Cc2cn(S(=O)(=O)c3cnn(CC(F)F)c3)nc2C1 (single isomer, unassigned) [Compound 38]",,121%,1800 nM,
"O=C([C@@H](O)c1ncccc1F)N1Cc2cn(S(=O)(=O)c3cnn(CC(F)F)c3)nc2C1 (single isomer, unassigned) [Compound 39]",,90%,120 nM,
"O=C([C@H](O)c1ccccc1F)N1Cc2cn(S(=O)(=O)c3cnn(CC(F)(F)F)c3)nc2C1 (single isomer, unassigned) [Compound 40]",81 nM,53%,,
"O=C([C@H](CO)c1ccccc1)N1Cc2cn(S(=O)(=O)c3cnn(CC(F)F)c3)nc2C1 [Compound 1, (2S)-1-(2-{[1-(2,2-difluoroethyl)-1H-pyrazol-4-yl]sulfonyl}-2H,4H,5H,6H-pyrrolo[3,4-c]pyrazol-5-yl)-3-hydroxy-2-phenylpropan-1-one]",5.4 nM,97%,,
"O=C([C@H](CO)c1ccccc1F)N1Cc2cn(S(=O)(=O)c3cnn(CC(F)F)c3)nc2C1 [Compound 2, (2S)-1-(2-{[1-(2,2-difluoroethyl)-1H-pyrazol-4-yl]sulfonyl}-2H,4H,5H,6H-pyrrolo[3,4-c]pyrazol-5-yl)-2-(2-fluorophenyl)-3-hydroxypropan-1-one]",4.7 nM,110%,,
"O=C([C@H](CO)c1ccccc1F)N1Cc2cn(S(=O)(=O)c3cnn(CC(F)(F)F)c3)nc2C1 [Compound 3, (2S)-2-(2-fluorophenyl)-3-hydroxy-1-(2-{[1-(2,2,2-trifluoroethyl)-1H-pyrazol-4-yl]sulfonyl}-2H,4H,5H,6H-pyrrolo[3,4-c]pyrazol-5-yl)propan-1-one]",7.1 nM,108%,,
"O=C([C@H](O)c1ccccc1)N1Cc2cn(S(=O)(=O)c3cnn(CC(F)F)c3)nc2C1 [Compound 4, (2R)-1-(2-{[1-(2,2-difluoroethyl)-1H-pyrazol-4-yl]sulfonyl}-2H,4H,5H,6H-pyrrolo[3,4-c]pyrazol-5-yl)-2-hydroxy-2-phenylethan-1-one]",,62%,22 nM,
"O=C([C@H](CO)c1ccccc1F)N1Cc2cn(S(=O)(=O)c3cnn(CCF)c3)nc2C1 [Compound 5, (2S)-1-(2-{[1-(2-fluoroethyl)-1H-pyrazol-4-yl]sulfonyl}-2H,4H,5H,6H-pyrrolo[3,4-c]pyrazol-5-yl)-2-(2-fluorophenyl)-3-hydroxypropan-1-one]",2.7 nM,88%,,
"C[C@H](O)[C@@H](C(=O)N1Cc2cn(S(=O)(=O)c3cnn(CC(F)F)c3)nc2C1)c1ccccc1 [Compound 6, (2S,3S)-1-(2-{[1-(2,2-difluoroethyl)-1H-pyrazol-4-yl]sulfonyl}-2H,4H,5H,6H-pyrrolo[3,4-c]pyrazol-5-yl)-3-hydroxy-2-phenylbutan-1-one]",,86%,11 nM,
"C[C@@H](O)[C@@H](C(=O)N1Cc2cn(S(=O)(=O)c3cnn(CC(F)F)c3)nc2C1)c1ccccc1 [Compound 7, (2S,3R)-1-(2-{[1-(2,2-difluoroethyl)-1H-pyrazol-4-yl]sulfonyl}-2H,4H,5H,6H-pyrrolo[3,4-c]pyrazol-5-yl)-3-hydroxy-2-phenylbutan-1-one]",,102%,17 nM,
"O=C(N1Cc2cn(S(=O)(=O)c3cnn(CC(F)F)c3)nc2C1)C1(c2ncccc2Cl)COC1 [Compound 8, 3-chloro-2-(3-[2-[1-(2,2-difluoroethyl)pyrazol-4-ylsulfonyl]-4H,6H-pyrrolo[3,4-c]pyrazole-5-carbonyl]oxetan-3-yl)pyridine]",5.7 nM,103%,,
"O=C([C@H](CO)c1ccccc1Cl)N1Cc2cn(S(=O)(=O)c3cnn(CC(F)F)c3)nc2C1 [Compound 9, (2S)-2-(2-chlorophenyl)-1-[2-[1-(2,2-difluoroethyl)pyrazol-4-ylsulfonyl]-4H,6H-pyrrolo[3,4-c]pyrazol-5-yl]-3-hydroxypropan-1-one]",,126%,3 nM,
"Cc1c(S(=O)(=O)n2cc3c(n2)CN(C(=O)[C@H](CO)c2ccccc2)C3)cnn1CC(F)F [Compound 11, (2S)-1-(2-{[1-(2,2-difluoroethyl)-5-methyl-1H-pyrazol-4-yl]sulfonyl}-2H,4H,5H,6H-pyrrolo[3,4-c]pyrazol-5-yl)-3-hydroxy-2-phenylpropan-1-one]",,92%,5.7 nM,
"O=C([C@H](CO)c1ccccc1F)N1Cc2cn(S(=O)(=O)c3ccn(CC(F)F)n3)nc2C1 [Compound 12, (2S)-1-(2-{[1-(2,2-difluoroethyl)-1H-pyrazol-3-yl]sulfonyl}-2H,4H,5H,6H-pyrrolo[3,4-c]pyrazol-5-yl)-2-(2-fluorophenyl)-3-hydroxypropan-1-one]",6.9 nM,121%,,
"O=C([C@H](CO)c1ccccc1Cl)N1Cc2cn(S(=O)(=O)c3ccn(CC(F)F)n3)nc2C1 [Compound 13, (2S)-2-(2-chlorophenyl)-1-(2-{[1-(2,2-difluoroethyl)-1H-pyrazol-3-yl]sulfonyl}-2H,4H,5H,6H-pyrrolo[3,4-c]pyrazol-5-yl)-3-hydroxypropan-1-one]",7 nM,133%,,
